This passage reports Ki results from patent US8829011B2 (Janssen Pharmaceutica NV, priority 2008, dated 2014).

For test [1], the target named is T1, human recombinant 5-HT6 receptor (Homo sapiens, UniProt P50406).
T1 construct: expressed in transfected cells; host or cells: HEK-293
Briefly: Affinity for 5-HT6 receptor binding sites (competitive radioligand binding, [3H]LSD). The note with it: membranes of HEK-293 with h5-HT6, * = tested as hydrochloride salt. Here is the method: (§1) Stock drug solutions (10 mM) were prepared in DMSO (the final assay concentration of DMSO not exceeding 0.4%). Drug dilutions were prepared in assay buffer.
(§2) Sigmoidal inhibition curves were generated and fitted by nonlinear regression analysis (GraphPad Prism).
3. Affinity for 5-HT6 Receptor Binding Sites
Receptor binding was performed using the human recombinant 5-HT6 (GB: BC0794995) receptor. The affinity of the compounds for the human 5-HT6 receptor was evaluated by competitive radioligand binding assays using [^3H]LSD. The assays were performed on membranes prepared from HEK-293 stably transfected with h5-HT6. Non-specific binding was estimated in the presence of 1 μM clozapine.

Test [2] addresses T2, human recombinant 5-HT2B receptor (Homo sapiens, UniProt P41595).
T2 construct: expressed in transfected cells; host or cells: CHO
Put plainly: Affinity for 5-HT2B receptor binding sites (competitive radioligand binding, [3H]mesulergine). The note with it: membranes of CHO with h5-HT2B, * = tested as hydrochloride salt. Here is the method:
as §1, §2
(§3) 2. Affinity for 5HT2 Receptor Binding Sites
(§4) Receptor binding was performed using the human recombinant 5-HT2A (GB: X57830), 5-HT2B (GB: Z36748) and 5-HT2C (GB: M81778) receptors. The affinity of the compounds for the 3 different human 5-HT2 receptor subtypes was evaluated by competitive radioligand binding assays using [^3H]ketanserin (h5-HT2A) or [^3H]mesulergine (h5-HT2B and h5-HT2C). The assays were performed on membranes prepared from NIH3T3 stably transfected with h5-HT2A or CHO stably transfected with h5-HT2B and h5-HT2C.

Test [3] deals with T3, human recombinant 5-HT2C receptor (Homo sapiens, UniProt P28335).
T3 construct: expressed in transfected cells; host or cells: CHO
T3 sequence (P28335 33-458): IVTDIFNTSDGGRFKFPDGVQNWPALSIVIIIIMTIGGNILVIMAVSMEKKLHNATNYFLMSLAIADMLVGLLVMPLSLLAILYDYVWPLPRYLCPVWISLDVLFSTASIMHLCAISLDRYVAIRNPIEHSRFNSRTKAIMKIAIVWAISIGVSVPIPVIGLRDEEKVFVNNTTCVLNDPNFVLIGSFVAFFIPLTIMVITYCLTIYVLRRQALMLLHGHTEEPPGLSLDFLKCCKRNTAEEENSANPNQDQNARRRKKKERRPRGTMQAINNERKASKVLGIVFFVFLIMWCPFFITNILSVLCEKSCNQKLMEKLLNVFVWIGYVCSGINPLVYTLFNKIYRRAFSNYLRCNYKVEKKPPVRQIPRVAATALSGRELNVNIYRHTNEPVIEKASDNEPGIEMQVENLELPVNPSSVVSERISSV
Briefly: Affinity for 5-HT2C receptor binding sites (competitive radioligand binding, [3H]mesulergine). The note with it: membranes of CHO with h5-HT2C, * = tested as hydrochloride salt. Here is the method:
as §1, §2, §3, §4

The target in test [4] is T4, human recombinant 5-HT2A receptor (Homo sapiens, UniProt P28223).
T4 construct: expressed in transfected cells; host or cells: NIH3T3
T4 sequence (P28223 whole entry): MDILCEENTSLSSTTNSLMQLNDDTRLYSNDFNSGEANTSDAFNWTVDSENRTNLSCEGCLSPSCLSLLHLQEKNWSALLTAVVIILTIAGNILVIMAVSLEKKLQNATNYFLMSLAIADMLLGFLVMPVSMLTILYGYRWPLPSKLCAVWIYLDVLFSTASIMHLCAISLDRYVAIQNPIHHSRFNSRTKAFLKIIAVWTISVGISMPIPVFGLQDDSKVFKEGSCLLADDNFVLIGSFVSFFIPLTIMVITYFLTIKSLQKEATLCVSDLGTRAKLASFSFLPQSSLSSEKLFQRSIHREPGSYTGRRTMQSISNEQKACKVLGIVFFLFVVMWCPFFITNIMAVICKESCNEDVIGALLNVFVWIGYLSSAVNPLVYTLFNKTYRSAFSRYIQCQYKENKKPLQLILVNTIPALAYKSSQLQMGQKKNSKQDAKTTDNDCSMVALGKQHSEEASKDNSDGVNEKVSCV
Put plainly: Affinity for 5-HT2A receptor binding sites (competitive radioligand binding, [3H]ketanserin). The note with it: membranes of NIH3T3 with h5-HT2A, * = tested as hydrochloride salt. Here is the method:
as §1, §2, §3, §4

By Ki is commonly meant a measure of affinity in units of concentration, obtained from inhibition or displacement.

T1 sequence (P50406 whole entry): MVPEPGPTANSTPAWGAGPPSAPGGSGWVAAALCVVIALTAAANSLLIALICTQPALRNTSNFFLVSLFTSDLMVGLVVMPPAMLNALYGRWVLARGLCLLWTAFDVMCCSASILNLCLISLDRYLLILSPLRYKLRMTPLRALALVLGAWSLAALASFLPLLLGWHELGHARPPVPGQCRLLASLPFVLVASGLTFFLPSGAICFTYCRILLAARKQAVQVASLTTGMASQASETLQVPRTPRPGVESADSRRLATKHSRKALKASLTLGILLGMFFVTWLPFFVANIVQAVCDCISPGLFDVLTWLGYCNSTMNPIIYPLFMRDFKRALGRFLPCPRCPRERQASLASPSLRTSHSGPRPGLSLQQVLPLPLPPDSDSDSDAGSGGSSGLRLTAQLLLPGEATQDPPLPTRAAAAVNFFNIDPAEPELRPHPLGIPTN
T2 sequence (P41595 whole entry): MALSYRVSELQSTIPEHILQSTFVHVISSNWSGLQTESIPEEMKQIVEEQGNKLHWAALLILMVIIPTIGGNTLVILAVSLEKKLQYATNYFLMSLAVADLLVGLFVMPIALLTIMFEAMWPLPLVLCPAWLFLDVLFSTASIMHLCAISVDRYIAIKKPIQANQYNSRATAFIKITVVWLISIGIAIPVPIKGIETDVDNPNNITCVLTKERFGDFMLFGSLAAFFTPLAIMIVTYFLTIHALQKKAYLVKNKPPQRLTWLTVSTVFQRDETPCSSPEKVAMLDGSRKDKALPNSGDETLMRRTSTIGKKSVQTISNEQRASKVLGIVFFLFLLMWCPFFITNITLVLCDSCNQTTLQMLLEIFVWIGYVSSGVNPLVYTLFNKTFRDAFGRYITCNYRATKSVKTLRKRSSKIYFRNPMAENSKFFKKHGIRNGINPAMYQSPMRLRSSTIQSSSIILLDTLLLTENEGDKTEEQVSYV

As for `Cc1ccc(-c2nc(N3CCCC3C)nc3c2CCNCC3)cc1Cl` (centres unmarked) [Example 77, 4-(3-chloro-4-methylphenyl)-6,7,8,9-tetrahydro-2-(2-methyl-1-pyrrolidinyl)-5H-pyrimido[4,5-d]azepine], the Ki in test [1] came to 51 nM; in test [2], 9 nM; in test [3] it was 33 nM; in test [4] it was 77 nM.
On to `Cc1ccc(-c2nc(N3[C@H](C)CCC[C@@H]3C)nc3c2CCNCC3)cc1Cl` [Example 79, 4-(3-chloro-4-methylphenyl)-2-[(2R,6S)-2,6-dimethyl-1-piperidinyl]-6,7,8,9-tetrahydro-5H-pyrimido[4,5-d]azepine], for which the Ki in test [1] was found to be 18 nM; in test [2], 7 nM; in test [3] it was 26 nM; in test [4], 39 nM.
In the case of `COc1ccc(-c2nc(N3CCCC3C)nc3c2CCNCC3)cc1` (centres unmarked) [Example 80, 6,7,8,9-tetrahydro-4-(4-methoxyphenyl)-2-(2-methyl-1-pyrrolidinyl)-5H-pyrimido[4,5-d]azepine], the Ki in test [1] came to 39 nM; in test [2] it was 6 nM; in test [3], 42 nM; in test [4] it was 140 nM.
Regarding `COc1ccc(-c2nc(N3[C@H](C)CCC[C@@H]3C)nc3c2CCNCC3)cc1` [Example 82, 2-[(2R,6S)-2,6-dimethyl-1-piperidinyl]-6,7,8,9-tetrahydro-4-(4-methoxyphenyl)-5H-pyrimido[4,5-d]azepine], the Ki was determined as 35 nM in test [1], 3 nM in test [2], 17 nM in test [3] and 48 nM in test [4].
On to `C[C@@H]1CCC[C@H](C)N1c1nc2c(c(-c3ccc(F)c(F)c3)n1)CCNCC2` [Example 83, 4-(3,4-difluorophenyl)-2-[(2R,6S)-2,6-dimethyl-1-piperidinyl]-6,7,8,9-tetrahydro-5H-pyrimido[4,5-d]azepine], for which the Ki turned out to be 84 nM in test [1], 12 nM in test [2], 39 nM in test [3] and 131 nM in test [4].
Take `C[C@@H]1CCC[C@H](C)N1c1nc2c(c(-c3ccc(Cl)c(F)c3)n1)CCNCC2` [Example 84, 4-(4-chloro-3-fluorophenyl)-2-[(2R,6S)-2,6-dimethyl-1-piperidinyl]-6,7,8,9-tetrahydro-5H-pyrimido[4,5-d]azepine]: the Ki is 52 nM in test [1], 2 nM in test [2], 18 nM in test [3] and 130 nM in test [4].
Take `Cc1ccc(-c2nc(N3[C@H](C)CCC[C@@H]3C)nc3c2CCNCC3)cc1F` [Example 85, 2-[(2R,6S)-2,6-dimethyl-1-piperidinyl]-4-(3-fluoro-4-methylphenyl)-6,7,8,9-tetrahydro-5H-pyrimido[4,5-d]azepine]: the Ki was 31 nM in test [1], 2 nM in test [2], 15 nM in test [3] and 45 nM in test [4].
The corresponding values for `Cc1ccc(-c2nc(N3[C@H](C)CCC[C@@H]3C)nc3c2CCNCC3)cn1` [Example 86, 2-[(2R,6S)-2,6-dimethyl-1-piperidinyl]-6,7,8,9-tetrahydro-4-(6-methyl-3-pyridinyl)-5H-pyrimido[4,5-d]azepine] are 80 nM, 9 nM, 240 nM and 660 nM.
As to `C[C@@H]1CCC[C@H](C)N1c1nc2c(c(-c3cnc4ccccc4c3)n1)CCNCC2` [Example 88, 2-[(2R,6S)-2,6-dimethyl-1-piperidinyl]-6,7,8,9-tetrahydro-4-(3-quinolinyl)-5H-pyrimido[4,5-d]azepine], the Ki in test [1] amounted to 12 nM; in test [2] it was 64 nM; in test [3] it was 600 nM; in test [4], 230 nM.
For `COc1ccc(-c2nc(N3[C@H](C)CCC[C@@H]3C)nc3c2CCNCC3)cc1F` [Example 89, 2-[(2R,6S)-2,6-dimethyl-1-piperidinyl]-4-(3-fluoro-4-methoxyphenyl)-6,7,8,9-tetrahydro-5H-pyrimido[4,5-d]azepine], the Ki in test [1] came to 35 nM; in test [2], 3 nM; in test [3], 33 nM; in test [4] it was 180 nM.
As for `CC(C)c1ccc(-c2nc(N3[C@H](C)CCC[C@@H]3C)nc3c2CCNCC3)cc1` [Example 91, 2-[(2R,6S)-2,6-dimethyl-1-piperidinyl]-6,7,8,9-tetrahydro-4-[4-(1-methylethyl)phenyl]-5H-pyrimido[4,5-d]azepine], the inhibition constant Ki came out at 41 nM in test [1], 6 nM in test [2], 45 nM in test [3] and 160 nM in test [4].
On to `Cc1ccc(-c2nc(N3CCS(=O)(=O)CC3)nc3c2CCNCC3)cc1Cl` [Example 92, 4-(3-Chloro-4-methyl-phenyl)-2-(1,1-dioxo-1λ^6-thiomorpholin-4-yl)-6,7,8,9-tetrahydro-5H-pyrimido[4,5-d]azepine], for which the Ki in test [1] was 85 nM; in test [2], 950 nM; in test [3], 2040 nM; in test [4], 1140 nM.
Take `Cc1ccc(-c2nc(N3CCOC[C@@H]3C)nc3c2CCNCC3)cc1Cl` [Example 93, 4-(3-chloro-4-methylphenyl)-6,7,8,9-tetrahydro-2-[(3S)-3-methyl-4-morpholinyl]-5H-pyrimido[4,5-d]azepine]: the Ki is 9 nM in test [1], 18 nM in test [2], 28 nM in test [3] and 150 nM in test [4].
The corresponding values for `Cc1ccc(-c2nc(N3CCOC[C@@H]3C)nc3c2CCNCC3)cc1` [Example 94, 6,7,8,9-tetrahydro-2-[(3S)-3-methyl-4-morpholinyl]-4-(4-methylphenyl)-5H-pyrimido[4,5-d]azepine] are 8 nM, 15 nM, 15 nM and 25 nM.
In the case of `C[C@H]1COCCN1c1nc2c(c(-c3cnc4ccccc4c3)n1)CCNCC2` [Example 95, 6,7,8,9-tetrahydro-2-[(3S)-3-methyl-4-morpholinyl]-4-(3-quinolinyl)-5H-pyrimido[4,5-d]azepine], the Ki in test [1] was found to be 7 nM; in test [2], 580 nM; in test [3] it was 810 nM; in test [4] it was 150 nM.
The corresponding values for `C[C@H]1COCCN1c1nc2c(c(-c3ccc(Cl)cc3)n1)CCNCC2` [Example 96, 4-(4-chlorophenyl)-6,7,8,9-tetrahydro-2-[(3S)-3-methyl-4-morpholinyl]-5H-pyrimido[4,5-d]azepine] are 13 nM, 35 nM, 69 nM and 100 nM.
Regarding `Cc1ccc(-c2nc(N3CCOC[C@@H]3C)nc3c2CCNCC3)cc1F` [Example 97, 4-(3-fluoro-4-methylphenyl)-6,7,8,9-tetrahydro-2-[(3S)-3-methyl-4-morpholinyl]-5H-pyrimido[4,5-d]azepine], the Ki came to 23 nM in test [1], 39 nM in test [2], 92 nM in test [3] and 400 nM in test [4].
As for `C[C@H]1COCCN1c1nc2c(c(-c3cc4ccccc4o3)n1)CCNCC2` [Example 98, 4-(2-benzofuranyl)-6,7,8,9-tetrahydro-2-[(3S)-3-methyl-4-morpholinyl]-5H-pyrimido[4,5-d]azepine], the Ki in test [1] amounted to 13 nM; in test [2] it was 25 nM; in test [3], 140 nM; in test [4], 99 nM.
As for `C[C@@H]1COCCN1c1nc2c(c(-c3cnc4ccccc4c3)n1)CCNCC2` [Example 99, 6,7,8,9-tetrahydro-2-[(3R)-3-methyl-4-morpholinyl]-4-(3-quinolinyl)-5H-pyrimido[4,5-d]azepine], the Ki in test [1] worked out at 30 nM; in test [2] it was 280 nM; in test [3], 490 nM; in test [4], 1440 nM.
For `Cc1ccc(-c2nc(N3CCOC[C@H]3C)nc3c2CCNCC3)cc1` [Example 100, 6,7,8,9-tetrahydro-2-[(3R)-3-methyl-4-morpholinyl]-4-(4-methylphenyl)-5H-pyrimido[4,5-d]azepine], the inhibitory constant (Ki) in test [1] worked out at 6 nM; in test [2], 8 nM; in test [3], 4 nM; in test [4] it was 21 nM.
